The values that follow come from publication PMC8288134, “Synthesis, potential antitumor activity, cell cycle analysis, and multitarget mechanisms of novel hydrazones incorporating a 4-methylsulfonylbenzene scaffold: a molecular docking study” (Journal of Enzyme Inhibition and Medicinal Chemistry, 2021).

Where two headings read alike, the source gives them in different places.

The subject of one series is K-562. The series is described as follows: NCI antitumor screen (SRB). It counts as cell-based. The note with it: Homo sapiens, K562, read-out: Growth inhibition percentage (GI%).
The next series relates to A549/ATCC. Briefly: NCI antitumor screen (SRB). The note with it: Homo sapiens, one dose 10 µM, read-out: Growth inhibition percentage (GI%). The format is cell-based.
For the next series, the system named is U251. The series is described as follows: NCI antitumor screen (SRB). It counts as cell-based. The note with it: Homo sapiens, U-251, one dose 10 µM, read-out: Growth inhibition percentage (GI%).
A further series concerns NCI-H522. Briefly: NCI antitumor screen (SRB). The format is cell-based. The following applies: Homo sapiens.
Another series concerns MOLT-4. The series is described as follows: NCI antitumor screen (SRB). It counts as cell-based. The note with it: Homo sapiens, one dose 10 µM, read-out: Growth inhibition percentage (GI%).
A further series relates to UACC-257. Briefly: NCI antitumor screen (SRB). The following applies: Homo sapiens, one dose 10 µM, read-out: Growth inhibition percentage (GI%). It counts as cell-based, human.
In series [1] the test system is full panel of 59 cancer cell lines. The series is described as follows: NCI antitumor screen, full panel. The following applies: one dose 10 µM.
The next series concerns HL-60(TB). The series is described as follows: cells. The format is cell-based, human. The following applies: Homo sapiens, HL-60, HL-60(TB); one dose 10 µM; read-out: Growth inhibition percentage (GI%).
For another series, the system named is SK-MEL-2. Briefly: NCI antitumor screen (SRB). The following applies: Homo sapiens, SK-MEL-2, read-out: Growth inhibition percentage (GI%). The format is cell-based.
Another series deals with OVCAR-8. The series is described as follows: NCI antitumor screen (SRB). It counts as cell-based. The note with it: Homo sapiens, one dose 10 µM, read-out: Growth inhibition percentage (GI%).
Another series deals with HOP-62. Briefly: NCI antitumor screen (SRB). The format is cell-based. The note with it: Homo sapiens.
Another series concerns UO-31. Briefly: NCI antitumor screen (SRB). The note with it: Homo sapiens, one dose 10 µM, read-out: Growth inhibition percentage (GI%). The format is cell-based, human.
For the next series, the system named is NCI-H226. Briefly: NCI antitumor screen (SRB). The format is cell-based. The following applies: Homo sapiens, one dose 10 µM, read-out: Growth inhibition percentage (GI%).
A further series concerns SNB-75. The series is described as follows: NCI antitumor screen (SRB). The format is cell-based. The following applies: Homo sapiens, one dose 10 µM, read-out: Growth inhibition percentage (GI%).
The test system of the next series is MDA-MB-468. The series is described as follows: NCI antitumor screen (SRB). The following applies: Homo sapiens, one dose 10 µM, read-out: Growth inhibition percentage (GI%). The format is cell-based.
In the next series the test system is HT29. The series is described as follows: NCI antitumor screen (SRB). The following applies: Homo sapiens, HT-29, one dose 10 µM, read-out: Growth inhibition percentage (GI%). The format is cell-based.
For the next series, the system named is CAKI-1. Briefly: NCI antitumor screen (SRB). The format is cell-based. The following applies: Homo sapiens, one dose 10 µM, read-out: Growth inhibition percentage (GI%).
For the next series, the system named is MALME-3M. Briefly: NCI antitumor screen (SRB). The note with it: Homo sapiens, one dose 10 µM, read-out: Growth inhibition percentage (GI%). The format is cell-based.
The next series relates to PC-3. Briefly: NCI antitumor screen (SRB). The format is cell-based. The following applies: Homo sapiens, one dose 10 µM, read-out: Growth inhibition percentage (GI%).
Another series deals with SR. The series is described as follows: NCI antitumor screen (SRB). The following applies: Homo sapiens, one dose 10 µM, read-out: Growth inhibition percentage (GI%). It counts as cell-based.
For a further series, the system named is IGROV1. The series is described as follows: NCI antitumor screen (SRB). The format is cell-based. The note with it: Homo sapiens, IGROV-1, one dose 10 µM, read-out: Growth inhibition percentage (GI%).
The test system of a further series is A498. The series is described as follows: NCI antitumor screen (SRB). It counts as cell-based. The note with it: Homo sapiens, one dose 10 µM, read-out: Growth inhibition percentage (GI%).
The next series deals with UACC-62. The series is described as follows: NCI antitumor screen (SRB). The note with it: Homo sapiens, one dose 10 µM, read-out: Growth inhibition percentage (GI%). The format is cell-based.
A further series relates to HCT-116. The series is described as follows: NCI antitumor screen (SRB). The following applies: Homo sapiens, read-out: Growth inhibition percentage (GI%). The format is cell-based.
A further series concerns SK-OV-3. The series is described as follows: NCI antitumor screen (SRB). The note with it: Homo sapiens, one dose 10 µM, read-out: Growth inhibition percentage (GI%). It counts as cell-based.
The subject of the next series is COLO 205. Briefly: NCI antitumor screen (SRB). It counts as cell-based. The following applies: Homo sapiens, one dose 10 µM, read-out: Growth inhibition percentage (GI%).
[2] abbreviates: NCI-H522, read-out: Growth inhibition percentage (GI%).
Setting [3] is: HOP-62, read-out: Growth inhibition percentage (GI%).

What is called inhibition is how much of the control response was suppressed. Turning to `CS(=O)(=O)c1ccc(C(=O)NN=Cc2ccccc2)cc1` [Compound 4, N'-Benzylidene-4-(methylsulfonyl)benzohydrazide], the inhibition at 10 µM was determined as 11.3% in the series with K-562; 28.5% in the series on A549/ATCC; 20.4% with U251; 42.1% in the series with NCI-H522 (setting [2]); 25.5% in the series with MOLT-4; 44.2% with UACC-257 (UACC-257). Also, the inhibition at 10 µM in the series with HL-60(TB) was found to be 60.3%; with SK-MEL-2 it was 21.5%; in the series with OVCAR-8, 15.1%; with HOP-62 (setting [3]) it was 12%. In addition, the “PCE: positive cytotoxic effect (number of cell lines with GI 10 to 100% / total number of cell lines)” value in [1] is 10/59.
As to `CS(=O)(=O)c1ccc(C(=O)NN=Cc2ccc(Cl)cc2Cl)cc1` [Compound 17, N'-(2,4-Dichlorobenzylidene)-4-(methylsulfonyl)benzohydrazide], the inhibition at 10 µM in the series on UO-31 (UO-31, UO-31) was 12.7%; in the series on A549/ATCC, 13.7%; in the series with NCI-H226, 13.6%; with SNB-75, 10.9%; in the series with NCI-H522 (NCI-H522, one dose 10 µM, read-out: Growth inhibition percentage (GI%)), 25%; with MDA-MB-468 it was 18.1%. The inhibition at 10 µM is 11.3% in the series with HT29; 29.4% with UACC-257 (UACC-257, UACC-257); 10.2% in the series on HOP-62 (HOP-62, one dose 10 µM, read-out: Growth inhibition percentage (GI%)). In addition, the “PCE: positive cytotoxic effect (number of cell lines with GI 10 to 100% / total number of cell lines)” value in series [1] is on record as 9/59.
Turning to `CS(=O)(=O)c1ccc(C(=O)NN=Cc2ccc(Cl)c(Cl)c2)cc1` [Compound 18, N'-(3,4-Dichlorobenzylidene)-4-(methylsulfonyl)benzohydrazide], the inhibition at 10 µM was 10.1% with CAKI-1; 17.7% in the series with K-562; 20.1% with A549/ATCC; 17.2% in the series with NCI-H522 (setting [2]); 12.2% with MALME-3M; 31.7% with MOLT-4. Besides, the inhibition at 10 µM turned out to be 10.3% with PC-3; 24.5% in the series on SR; 21.8% with UACC-257 (UACC-257); 30.6% in the series with HL-60(TB); 15% in the series on IGROV1; 16% in the series with A498. In addition, the inhibition at 10 µM with UACC-62 came out at 11.2%; in the series with HCT-116 it was 12.7%. In addition, the “PCE: positive cytotoxic effect (number of cell lines with GI 10 to 100% / total number of cell lines)” value in series [1] is on record as 14/59.
Turning to `COc1cc(/C=N/NC(=O)c2ccc(S(C)(=O)=O)cc2)ccc1O` [Compound 19], the inhibition at 10 µM is 27.2% in the series with K-562; 12.8% with UO-31 (UO-31); 29.3% in the series with A549/ATCC; 13% in the series with U251; 37.7% in the series with NCI-H522 (setting [2]); 17.5% in the series with HT29. For the same compound, the inhibition at 10 µM in the series with MOLT-4 is 30.9%; with SR, 18.5%; in the series on UACC-257 (UACC-257), 48.4%; with HL-60(TB) it was 67.3%; with SK-MEL-2, 13.9%; in the series on OVCAR-8, 19.6%. In the series with HOP-62 (setting [3]), the inhibition at 10 µM was 12.1%. The “PCE: positive cytotoxic effect (number of cell lines with GI 10 to 100% / total number of cell lines)” value in series [1] is given as 13/59.
As for `COc1cc(C=NNC(=O)c2ccc(S(C)(=O)=O)cc2)cc(OC)c1OC` [Compound 23, 4-(Methylsulfonyl)-N'-(3,4,5-trimethoxybenzylidene)benzohydrazide], the inhibition at 10 µM in the series with K-562 worked out at 37.6%; with UO-31 (UO-31), 10.2%; in the series on A549/ATCC it was 22.8%; with SNB-75, 11.3%; in the series on MOLT-4, 32.6%; with UACC-257 (UACC-257), 28.6%. The values for the inhibition at 10 µM with HL-60(TB), in the series on SK-OV-3 and in the series with COLO 205 were 44.2%, 14.2% and 14.6%, respectively. For the same compound, the “PCE: positive cytotoxic effect (number of cell lines with GI 10 to 100% / total number of cell lines)” value in [1] is reported as 9/59.
